Legend:
GPR3 = target: T1, GPR3 (Homo sapiens, UniProt P46089); assay: GPR3 antagonist functional cAMP assay (LANCE Ultra cAMP TR-FRET, CHO cells stably expressing GPR3); type: cell-based
T1 construct: expressed in transfected cells; host or cells: CHO cells
How it was run: (§1)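 Suspended cells were plated at 10,000 per well in Krebs-Ringer bicarbonate buffer containing 0.1% BSA and 150 μM Ro 20-1724, then treated with compounds for 45 min at 37 °C. Intracellular cAMP was then quantified by TR-FRET immunoassay.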

GPR6 = target: T2, GPR6 (Homo sapiens, UniProt P46095); assay: GPR6 antagonist functional cAMP assay (LANCE Ultra cAMP TR-FRET, CHO cells stably expressing GPR6); type: cell-based
T2 construct: expressed in transfected cells; host or cells: CHO cells
How it was run: as §1

[1] = CHO cells stably expressing GPR3, cAMP assay (Example 24)
[2] = CHO cells stably expressing GPR6, cAMP assay (Example 24)
[3] = CHO cells stably expressing GPR3, cAMP assay
[4] = CHO cells stably expressing GPR6, cAMP assay
[5] = procedure as described in Example 24

T2 sequence (P46095 whole entry): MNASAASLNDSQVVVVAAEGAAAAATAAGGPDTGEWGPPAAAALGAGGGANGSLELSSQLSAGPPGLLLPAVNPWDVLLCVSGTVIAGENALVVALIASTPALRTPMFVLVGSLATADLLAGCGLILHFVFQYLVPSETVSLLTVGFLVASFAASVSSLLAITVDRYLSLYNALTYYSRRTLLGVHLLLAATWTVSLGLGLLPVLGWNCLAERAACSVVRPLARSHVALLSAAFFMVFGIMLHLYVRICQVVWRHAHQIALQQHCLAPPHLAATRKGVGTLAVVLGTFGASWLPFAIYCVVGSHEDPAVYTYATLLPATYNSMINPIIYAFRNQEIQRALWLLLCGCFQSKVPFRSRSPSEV
T1 sequence (P46089 whole entry, species assumed): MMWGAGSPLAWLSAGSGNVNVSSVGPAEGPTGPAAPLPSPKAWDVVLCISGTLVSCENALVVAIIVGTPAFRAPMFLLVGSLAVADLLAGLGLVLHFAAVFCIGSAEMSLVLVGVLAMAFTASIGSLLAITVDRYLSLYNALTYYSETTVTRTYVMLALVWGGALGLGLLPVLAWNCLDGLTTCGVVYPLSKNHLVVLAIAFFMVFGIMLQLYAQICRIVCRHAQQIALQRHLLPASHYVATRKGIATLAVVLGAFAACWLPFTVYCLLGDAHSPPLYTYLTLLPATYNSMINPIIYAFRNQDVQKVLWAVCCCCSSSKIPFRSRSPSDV

IC50 (GPR3; [1]) [µM]	IC50 (GPR6; [2]) [µM]	also measured	Structure (SMILES)
≥ 30	≥ 30		CC(=O)N1CCc2nc(N3CCC(Oc4ccc(F)cc4F)CC3)c(-c3c(C)n[nH]c3C)nc2C1 [Compound 98, 1-{2-[4-(2,4-difluorophenoxy)piperidin-1-yl]-3-(3,5-dimethyl-1H-pyrazol-4-yl)-5H,6H,7H,8H-pyrido[3,4-b]pyrazin-6-yl}ethan-1-one]
1 to 30	< 0.1		CCn1cc(-c2nc3c(nc2N2CCC(Oc4ccc(F)cc4F)CC2)CCN(C(=O)C2COCCO2)C3)cn1 (stereo not drawn) [Compound 474, 4-(2,4-difluorophenoxy)-1-[6-(1,4-dioxane-2-carbonyl)-3-(1-ethyl-1H-pyrazol-4-yl)-5H,6H,7H,8H-pyrido[3,4-b]pyrazin-2-yl]piperidine]
≥ 30	0.1 to 1		CC(=O)N1CCc2nc(N3CCC(Oc4ccc(F)cc4F)CC3)c(C3=COCCC3)nc2C1 [Compound 219, 1-{2-[4-(2,4-difluorophenoxy)piperidin-1-yl]-3-(3,4-dihydro-2H-pyran-5-yl)-5H,6H,7H,8H-pyrido[3,4-b]pyrazin-6-yl}ethan-1-one]
1 to 30	1 to 30		CC(=O)N1CCc2nc(N3CCN(Cc4ccc(F)cc4)CC3)c(-c3cnn(C)c3)nc2C1 [Compound 257, 1-(2-{4-[(4-fluorophenyl)methyl]piperazin-1-yl}-3-(1-methyl-1H-pyrazol-4-yl)-5H,6H,7H,8H-pyrido[3,4-b]pyrazin-6-yl)ethan-1-one]
		IC50 (GPR3; [3]): 1 to 30 µM; IC50 (GPR6; [4]): 1 to 30 µM	Cn1cc(-c2nc3ccc(C(O)C(C)(C)O)nc3nc2N2CCC(Oc3ccc(F)cc3F)CC2)cn1 (stereo not drawn) [Compound 587, 1-{3-[4-(2,4-difluorophenoxy)-1-piperidyl]-2-(1-methyl-4-pyrazolyl)-1,4,5-triaza-6-naphthyl}-2-methyl-1,2-propanediol]
1 to 30	1 to 30		COC(C)(C)C(=O)N1CCc2nc(N3CCC(Oc4ccc(F)cc4F)CC3)c(-c3cnn(C4CCCCO4)c3)nc2C1 (stereo not drawn) [Compound 173, 1-{2-[4-(2,4-difluorophenoxy)piperidin-1-yl]-3-[1-(oxan-2-yl)-1H-pyrazol-4-yl]-5H,6H,7H,8H-pyrido[3,4-b]pyrazin-6-yl}-2-methoxy-2-methylpropan-1-one]
1 to 30	1 to 30		COc1cccc(-c2nc3cnccc3nc2N2CC3(CC(Oc4ccc(F)cc4F)C3)C2)n1 [Compound 104, 6-(2,4-difluorophenoxy)-2-[3-(6-methoxypyridin-2-yl)pyrido[3,4-b]pyrazin-2-yl]-2-azaspiro[3.3]heptane]
1 to 30	1 to 30		CC(=O)N1CCc2nc(N3CCC(Oc4cc(F)cc(F)c4)CC3)c(-c3cnn(C)c3)nc2C1 [Compound 431, 1-{2-[4-(3,5-difluorophenoxy)piperidin-1-yl]-3-(1-methyl-1H-pyrazol-4-yl)-5H,6H,7H,8H-pyrido[3,4-b]pyrazin-6-yl}ethan-1-one]
		IC50 (GPR3; procedure of Example 24): 1 to 30 µM; IC50 (GPR6; procedure of Example 24): 0.1 to 1 µM	CC(C)(O)[C@@H](O)c1cc2nc(-c3cn[nH]c3)c(N3CCN(Cc4ccc(F)cc4F)CC3)nc2cn1 (single isomer, unassigned) [Compound 800]
1 to 30	1 to 30		CC(=O)N1CCc2nc(N3CCC(Oc4ccc(F)cc4F)CC3)c(-c3nccs3)nc2C1 [Compound 75, 1-{2-[4-(2,4-difluorophenoxy)piperidin-1-yl]-3-(1,3-thiazol-2-yl)-5H,6H,7H,8H-pyrido[3,4-b]pyrazin-6-yl}ethan-1-one]
		IC50 (GPR3; procedure of Example 24): 1 to 30 µM; IC50 (GPR6; procedure of Example 24): 0.1 to 1 µM	Cn1cc(-c2nc3cnc(OCC(C)(C)O)cc3nc2N2CCC(Oc3ccc(F)cc3F)CC2)cn1 [Compound 696, 1-{2-[4-(2,4-difluorophenoxy)-1-piperidyl]-3-(1-methyl-4-pyrazolyl)-1,4,6-triaza-7-naphthyloxy}-2-methyl-2-propanol]
1 to 30	1 to 30		CC(=O)N1CCc2nc(N3CCC(Oc4ccc(F)cc4F)CC3)c(C3CCCOC3)nc2C1 (stereo not drawn) [Compound 237, 1-{2-[4-(2,4-difluorophenoxy)piperidin-1-yl]-3-(oxan-3-yl)-5H,6H,7H,8H-pyrido[3,4-b]pyrazin-6-yl}ethan-1-one]
		IC50 (GPR3; [3]): ≥ 30 µM; IC50 (GPR6; [4]): ≥ 30 µM	CC(=O)N1CCc2nc(N3CCN(Cc4cccnc4)CC3)c(-c3cnn(C)c3)nc2C1 [Compound 517, 1-[3-(1-methyl-4-pyrazolyl)-2-{4-[(3-pyridyl)methyl]-1-piperazinyl}-5,6,7,8-tetrahydro-1,4,6-triaza-6-naphthyl]-1-ethanone]
		IC50 (GPR3; procedure of Example 24): 1 to 30 µM; IC50 (GPR6; procedure of Example 24): 0.1 to 1 µM	CC(C)(O)C(C)(O)c1cc2nc(-c3cnn(C(F)F)c3)c(N3CCN(Cc4ccccc4F)CC3)nc2cn1 (single isomer, unassigned) [Compound 709]
1 to 30	1 to 30		CC(=O)N1CCc2nc(N3CC(Oc4ccc(F)cc4F)C3)c(-c3cnn(C)c3)nc2C1 [Compound 398, 1-{2-[3-(2,4-difluorophenoxy)azetidin-1-yl]-3-(1-methyl-1H-pyrazol-4-yl)-5H,6H,7H,8H-pyrido[3,4-b]pyrazin-6-yl}ethan-1-one]
		IC50 (GPR3; [3]): 1 to 30 µM; IC50 (GPR6; [4]): 0.1 to 1 µM	CC(C)(O)[C@H](O)c1cc2nc(N3CCN(Cc4ccc(F)cc4F)CC3)c(-c3cnn(CF)c3)nc2cn1 (single isomer, unassigned) [Compound 598]
1 to 30	0.1 to 1		Cn1cc(-c2nc3cnc([C@H](O)C(C)(C)O)cc3nc2N2CCN(Cc3ccc(F)cc3F)CC2)cn1 (single isomer, unassigned) [Compound 262]
1 to 30	1 to 30		CC(=O)N1CCc2nc(N3CCC(Oc4ccc(F)cc4F)CC3)c(-c3cnn(CCN(C)C)c3)nc2C1 [Compound 138, 1-{2-[4-(2,4-difluorophenoxy)piperidin-1-yl]-3-{1-[2-(dimethylamino)ethyl]-1H-pyrazol-4-yl}-5H,6H,7H,8H-pyrido[3,4-b]pyrazin-6-yl}ethan-1-one]
		IC50 (GPR3; [5]): 0.1 to 1 µM; IC50 (GPR6; [5]): 1 to 30 µM	CC(=O)N1CCc2nc(N3CCC(Oc4ccc(F)cc4F)CC3)c(-c3ncn[nH]3)nc2C1 [Compound 1, 1-{2-[4-(2,4-difluorophenoxy)piperidin-1-yl]-3-(1H-1,2,4-triazol-5-yl)-5H,6H,7H,8H-pyrido[3,4-b]pyrazin-6-yl}ethan-1-one]
1 to 30	0.1 to 1		CC(C)OC(=O)N1CCc2nc(N3CCC(Oc4ccc(F)cc4F)CC3)c(-c3cn[nH]c3)nc2C1 [Compound 121, propan-2-yl 2-[4-(2,4-difluorophenoxy)piperidin-1-yl]-3-(1H-pyrazol-4-yl)-c5H,6H,7H,8H-pyrido[3,4-b]pyrazine-6-carboxylate]
1 to 30	0.1 to 1		Cn1cc(-c2nc3cnc(CCO)cc3nc2N2CCC(Oc3ccc(F)cc3F)CC2)cn1 [Compound 468, 2-{2-[4-(2,4-difluorophenoxy)piperidin-1-yl]-3-(1-methyl-1H-pyrazol-4-yl)pyrido[3,4-b]pyrazin-7-yl}ethan-1-ol]
1 to 30	0.1 to 1		O=C(C1COC1)N1CCc2nc(N3CCC(Oc4ccc(F)cc4F)CC3)c(-c3cnn(C4CCCCO4)c3)nc2C1 (stereo not drawn) [Compound 172, 4-(2,4-difluorophenoxy)-1-{3-[1-(oxan-2-yl)-1H-pyrazol-4-yl]-6-(oxetane-3-carbonyl)-5H,6H,7H,8H-pyrido[3,4-b]pyrazin-2-yl}piperidine]
		IC50 (GPR3; [5]): 0.1 to 1 µM; IC50 (GPR6; [5]): 1 to 30 µM	COc1cccc(-c2nc3cnccc3nc2N2CCN(Cc3ccc(S(C)(=O)=O)cc3F)CC2)n1 [Compound 29, 1-[(2-fluoro-4-methanesulfonylphenyl)methyl]-4-[3-(6-methoxypyridin-2-yl)pyrido[3,4-b]pyrazin-2-yl]piperazine]
1 to 30	0.1 to 1		[2H]C([2H])([2H])n1cc(-c2nc3c(nc2N2CCC(Oc4ccc(F)cc4F)CC2)CCN(C(C)=O)C3)cn1 [Compound 405, 1-{2-[4-(2,4-difluorophenoxy)piperidin-1-yl]-3-[1-(2H3)methyl-1H-pyrazol-4-yl]-5H,6H,7H,8H-pyrido[3,4-b]pyrazin-6-yl}ethan-1-one]
		IC50 (GPR3; procedure of Example 24): 1 to 30 µM; IC50 (GPR6; procedure of Example 24): 0.1 to 1 µM	CC(C)(O)[C@@](C)(O)c1cc2nc(N3CCC(Oc4ccc(F)cc4F)CC3)c(-c3cnn(CF)c3)nc2cn1 (single isomer, unassigned) [Compound 678]
1 to 30	1 to 30		COc1cccc(OC2CCN(c3nc4c(nc3-c3cnn(C)c3)CN(C(C)=O)CC4)CC2)c1F [Compound 427, 1-{2-[4-(2-fluoro-3-methoxyphenoxy)piperidin-1-yl]-3-(1-methyl-1H-pyrazol-4-yl)-5H,6H,7H,8H-pyrido[3,4-b]pyrazin-6-yl}ethan-1-one]
		IC50 (GPR3; procedure of Example 24): 1 to 30 µM; IC50 (GPR6; procedure of Example 24): 1 to 30 µM	CC(=O)N1CCc2nc(N3CCC(Oc4ccc(F)cc4F)CC3)c(-c3ccc4c(n3)OCC4)nc2C1 [Compound 326, 1-{2-[4-(2,4-difluorophenoxy)piperidin-1-yl]-3-{2H,3H-furo[2,3-b]pyridin-6-yl}-5H,6H,7H,8H-pyrido[3,4-b]pyrazin-6-yl}ethan-1-one]
		IC50 (GPR3; procedure of Example 24): 1 to 30 µM; IC50 (GPR6; procedure of Example 24): 0.1 to 1 µM	CO[C@H](CO)c1cc2nc(N3CCC(Oc4ccc(F)cc4F)CC3)c(-c3cnn(C)c3)nc2cn1 (single isomer, unassigned) [Compound 641]
1 to 30	1 to 30		CC(=O)N1CCc2nc(N3CCC(Oc4ccc(F)cc4F)CC3)c(-c3ccc(F)c(=O)[nH]3)nc2C1 [Compound 105, 6-{6-acetyl-2-[4-(2,4-difluorophenoxy)piperidin-1-yl]-5H,6H,7H,8H-pyrido[3,4-b]pyrazin-3-yl}-3-fluoro-1,2-dihydropyridin-2-one]
		IC50 (GPR3; procedure of Example 24): 1 to 30 µM; IC50 (GPR6; procedure of Example 24): 0.1 to 1 µM	Cn1cc(-c2nc3cc(C(C)(O)CO)ncc3nc2N2CCC(Oc3ccc(F)cc3F)CC2)cn1 (stereo not drawn) [Compound 645, 2-{3-[4-(2,4-difluorophenoxy)-1-piperidyl]-2-(1-methyl-4-pyrazolyl)-1,4,6-triaza-7-naphthyl}-1,2-propanediol]
